Reference: the NIST ThermoML archive (doi:10.1021/je0342668)
Numbers after ± are expanded uncertainties.

Test: molar heat capacity at constant pressure; xn = mol fraction of the nth substance listed
Settings: Liquid, x2 = 0.568

CCCO [propan-1-ol] + O
Settings	molar heat capacity at constant pressure [J/K/mol]
262.42 K	106.61 ± 0.61
264.63 K	107.35 ± 0.61
266.82 K	108.31 ± 0.62
269.02 K	109.17 ± 0.62
271.19 K	109.88 ± 0.62
273.35 K	110.58 ± 0.62
275.5 K	111.1 ± 0.62
277.64 K	111.89 ± 0.62
279.76 K	112.63 ± 0.62
281.87 K	113.37 ± 0.63
283.94 K	114.17 ± 0.63
286 K	114.78 ± 0.63
288.06 K	115.38 ± 0.63
290.08 K	116.09 ± 0.63
292.07 K	116.6 ± 0.63
294.06 K	117.18 ± 0.63
296.02 K	117.95 ± 0.64
298.02 K	118.53 ± 0.64
300.05 K	119.17 ± 0.64
302.07 K	119.94 ± 0.64
304.12 K	120.61 ± 0.64
306.15 K	121.22 ± 0.64
308.18 K	121.92 ± 0.64
310.21 K	122.56 ± 0.65
312.24 K	123 ± 0.65
314.26 K	123.59 ± 0.65
316.27 K	124.29 ± 0.65
318.28 K	124.81 ± 0.65
